Measurements published in patent US11160871B2, “SSTR-targeted conjugates and particles and formulations thereof” (TARVEDA THERAPEUTICS, INC., priority 2015, dated 2021).
“And” between values parts separate entries of the source, which are not always exact repeats. Equal values may be shown once. Read-outs that look alike come from different tables or passages of the source.

How the values were obtained:
[1] = biological target: SSTR1 (Homo sapiens, UniProt P30872); assay: Radioligand-receptor binding assay, same method; details: read-out: Conjugate 57 Ki
Protocol: (§1) Two conjugates were assessed in an in vitro assay evaluating binding to the somatostatin receptor 2 (SSTR2). A radioligand-receptor binding assay was conducted at Eurofins Panlabs (Taiwan) to determine the affinity of conjugates described herein to the SSTR2. The assay measures binding of radiolabeled ligand, [^125I] labeled somatostatin, to human SSTR2 using membrane preparations from SSTR2 expressing CHO-K1 cells. Membranes were incubated with radiolabeled somatostatin (0.03 nM) in the presence of conjugate/compound starting at a dose of 10 uM using 6× serial dilutions to obtain a 10-pt curve. After a four hour incubation, membranes were filtered and washed 3× and counted to determine the remaining[^125 I] somatostatin bound to the receptor. IC50 values were determined by a non-linear, least squares regression analysis using MathIQ™ (ID Business Solutions Ltd., UK). The Ki values were calculated using the equation of Cheng and Prusoff (Cheng and Prusoff, Biochem. Pharmacol. 22:3099-3108, 1973) using the observed IC50 of the tested conjugate/compound, the concentration of radioligand employed in the assay, and the historical values for the KD of the ligand obtained at Eurofins.
(§2) In another study, the binding of Conjugate 57 to the five SSTRs was measured with the same method. Conjugate 57 binds selectively and with high affinity to SSTR2.

[2] = biological target: SSTR3 (Homo sapiens, UniProt P32745); assay: Radioligand-receptor binding assay, same method; details: read-out: Conjugate 57 Ki
Protocol: as §1, §2

[3] = biological target: SSTR4 (Homo sapiens, UniProt P31391); assay: Radioligand-receptor binding assay, same method; details: read-out: Conjugate 57 Ki
Protocol: as §1, §2

[4] = biological target: SSTR5 (Homo sapiens, UniProt P35346); assay: Radioligand-receptor binding assay, same method; details: read-out: Conjugate 57 Ki
Protocol: as §1, §2

[5] = test system: NCI-H524 cells; assay: PH3 assay of cell-cycle arrest; format: cell-based, human
Description: Results of a PH3 assay measuring effect on cell-cycle arrest that looks at phospho histone H3 (PH3) increases were shown in FIG. 2B.

[6] = NCI-H524 small cell lung cancer model, tumor volume and body weight; format: in vivo; details: in vivo; read-out: maximum tolerated dose (MTD)
Description: (§3) NCI-H524 over expresses SSTR2. […] There was minimal body weight loss and favorable toxicology.

[7] = test system: NCI-H524 small cell lung cancer model; assay: as above; format: in vivo
Description: as §3

[8] = test system: NCI-H69 small cell lung cancer model; assay: NCI-H69 model, comparison with standard of care combination; format: in vivo, rats; details: Cycle 1 Day 1, Cycle 2 Day 8; Conjugate 57 one cycle at MTD (2 mg/kg), other doses equivalent
Protocol: In yet another study, single cycle of Conjugate 57 treatment was compared with two cycles of standard of care combination in NCI-H69 small cell lung cancer model. NCI-H69 bearing rats were treated with two cycles of cctreotide+DM1, one or two cycles of cisplatin+etoposide, one cycle of Conjugate 57. Cycle 1 was given on Day 1, Cycle 2 on Day 8. Rats were dosed with MTD (2 mg/kg) of Conjugate 57. Octreotide, DM1, cisplatin, and etoposide doses were equivalent to Conjugate 57.

[9] = Plasma pharmacokinetics; format: in vivo; details: for Vd: read-out: Vss
Protocol: In this example, plasma pharmacokinetics of Conjugate 57 was studied in mouses, rats and dogs. Half-life, maximum plasma drug concentration (Cmax), drug clearance (CL), area under the curve time curve from time 0 to the last sampling time (AUC 0-t), and apparent volume of distribution at steady state (VSS) were measured.

[10] = Allometric scaling of clearance; design: species or system human; details: from mouse, rat and dog
[11] = test system: H69 tumors; assay: H69 model tumor growth inhibition; format: in vivo
[12] = test system: H69 tumor; assay: Histological staining of PH3 and CC3 in periphery, middle and core of H69 tumor; format: in vivo
Description: Histological staining of PH3 and CC3 in periphery, middle and core of H69 tumor after Conjugate 57 treatment was shown in FIG. 22A and FIG. 22B. The periphery sample was taken from roughly the outside ⅓ of the tumor. The core sample was taken from roughly the center ⅓ of the tumor. The middle sample was taken from roughly ⅓ in between these locations. Using a 40× high-powered objective, positively stained cells were counted, one field per animal, 3 animals per treatment group. Each field was roughly 500 μm in size. In general, the PH3 staining was strongest on the periphery and decreased as you moved towards the center of the tumor.

[13] = test system: passage 3 IMR-32 tumors; assay: IMR-32 tumor model; format: in vivo, mice
Protocol: Further, mice bearing passage 3 IMR-32 tumors were dosed with Conjugate 57 either at 2.0 mg/kg or 1.5 mg/kg once a week for two weeks with a vehicle negative control. […] The 1.5 mpk group only lost an average of 2.0%. All mice recovered once dosing was complete.

[14] = test system: MCF-7 breast cancer cells; assay: MCF-7 cell proliferation; format: cell-based
Protocol: In an in vitro study, Conjugate 57 is given to MCF-7 breast cancer cells. Cell proliferation of the MCF-7 cells are measured.

[15] = biological target: SSTR2 (Homo sapiens, UniProt P30874); assay: Radioligand-receptor binding assay, [125I] labeled somatostatin; design: host or cells: CHO-K1
Protocol: as §1

Sequence of SSTR2 (P30874 whole entry): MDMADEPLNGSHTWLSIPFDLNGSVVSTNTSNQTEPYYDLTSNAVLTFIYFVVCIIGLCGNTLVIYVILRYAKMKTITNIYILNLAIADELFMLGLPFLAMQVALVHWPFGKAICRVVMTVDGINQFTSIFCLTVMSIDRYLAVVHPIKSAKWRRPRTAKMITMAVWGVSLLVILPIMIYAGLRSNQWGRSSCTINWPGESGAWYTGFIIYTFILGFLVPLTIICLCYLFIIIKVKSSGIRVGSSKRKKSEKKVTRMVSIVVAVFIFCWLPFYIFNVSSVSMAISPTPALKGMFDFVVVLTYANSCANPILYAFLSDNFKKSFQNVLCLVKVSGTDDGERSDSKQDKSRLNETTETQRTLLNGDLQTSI
Sequence of SSTR5 (P35346 whole entry): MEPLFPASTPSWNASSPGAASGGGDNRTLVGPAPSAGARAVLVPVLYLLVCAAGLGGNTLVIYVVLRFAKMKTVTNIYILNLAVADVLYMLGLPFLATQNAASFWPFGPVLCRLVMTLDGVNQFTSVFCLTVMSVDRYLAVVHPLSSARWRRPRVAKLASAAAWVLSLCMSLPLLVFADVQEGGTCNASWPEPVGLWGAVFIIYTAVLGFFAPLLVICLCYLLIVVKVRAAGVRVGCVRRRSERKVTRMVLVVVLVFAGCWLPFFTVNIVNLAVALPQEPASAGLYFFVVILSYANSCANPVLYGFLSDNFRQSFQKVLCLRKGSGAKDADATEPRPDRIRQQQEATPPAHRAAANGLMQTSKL
Sequence of SSTR1 (P30872 whole entry): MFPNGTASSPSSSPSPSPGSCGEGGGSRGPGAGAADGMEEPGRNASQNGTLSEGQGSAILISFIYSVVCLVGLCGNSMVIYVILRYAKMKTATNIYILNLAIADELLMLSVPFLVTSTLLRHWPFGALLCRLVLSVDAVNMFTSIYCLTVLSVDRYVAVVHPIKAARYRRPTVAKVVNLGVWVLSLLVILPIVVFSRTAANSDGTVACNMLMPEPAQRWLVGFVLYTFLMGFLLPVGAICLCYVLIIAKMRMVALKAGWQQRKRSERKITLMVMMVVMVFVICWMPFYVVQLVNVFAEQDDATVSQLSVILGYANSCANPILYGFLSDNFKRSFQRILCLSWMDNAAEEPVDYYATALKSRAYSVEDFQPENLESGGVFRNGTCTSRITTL
Sequence of SSTR3 (P32745 whole entry): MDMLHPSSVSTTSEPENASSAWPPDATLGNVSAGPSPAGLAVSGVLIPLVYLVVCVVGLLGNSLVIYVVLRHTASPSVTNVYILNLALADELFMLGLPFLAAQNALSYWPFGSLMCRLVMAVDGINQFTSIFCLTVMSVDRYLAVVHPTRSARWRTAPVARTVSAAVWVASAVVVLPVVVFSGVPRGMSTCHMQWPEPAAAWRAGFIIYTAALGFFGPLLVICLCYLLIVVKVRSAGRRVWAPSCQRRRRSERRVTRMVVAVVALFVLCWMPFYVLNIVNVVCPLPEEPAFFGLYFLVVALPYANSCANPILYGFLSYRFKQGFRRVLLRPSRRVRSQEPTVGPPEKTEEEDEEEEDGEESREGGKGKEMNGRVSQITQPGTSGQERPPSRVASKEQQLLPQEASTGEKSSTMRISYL
Sequence of SSTR4 (P31391 whole entry): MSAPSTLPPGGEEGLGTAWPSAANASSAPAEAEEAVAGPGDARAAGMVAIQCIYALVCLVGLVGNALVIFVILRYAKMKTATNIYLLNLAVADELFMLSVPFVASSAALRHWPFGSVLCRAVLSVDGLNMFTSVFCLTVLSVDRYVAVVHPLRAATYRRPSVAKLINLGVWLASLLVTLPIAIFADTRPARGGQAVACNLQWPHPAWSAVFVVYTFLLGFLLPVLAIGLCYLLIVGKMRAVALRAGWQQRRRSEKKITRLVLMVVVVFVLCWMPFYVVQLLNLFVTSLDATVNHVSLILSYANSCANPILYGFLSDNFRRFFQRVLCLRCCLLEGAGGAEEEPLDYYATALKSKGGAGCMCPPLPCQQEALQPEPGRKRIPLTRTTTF

## COc1cc2cc(c1Cl)N(C)C(=O)C[C@H](OC(=O)[C@H](C)N(C)C(=O)CCSSC[C@H](NC(=O)[C@@H]1CSSC[C@H](NC(=O)[C@H](N)Cc3ccccc3)C(=O)N[C@@H](Cc3ccc(O)cc3)C(=O)N[C@H](Cc3c[nH]c4ccccc34)C(=O)N[C@@H](CCCCN)C(=O)N[C@@H]([C@@H](C)O)C(=O)N1)C(N)=O)[C@]1(C)O[C@H]1[C@H](C)[C@@H]1C[C@@](O)(NC(=O)O1)[C@H](OC)/C=C/C=C(\C)C2 [Conjugate 57]
[1]
  Ki: 310 nM
[2]
  Ki: 19.8 nM
[3]
  Ki: 5480 nM
[4]
  Ki: 9.6 nM
[5]
  shift in PH3 assay on competition with octreotide: 2.6 fold
[6]
  MTD: 2 mg/kg
[7]; 2 mg/kg (MTD) and 1 mg/kg
  tumor response (mean tumor volume): complete tumor regressions
[7]; in vivo
  tolerability (mean body weight change): well tolerated
[8]
  tumor response (tumor volume): complete regression
[9]; Dog, 0.1 mg/kg
  AUC(0-t): 0.619 µM·h
  Cmax: 0.73 µM
  clearance: 1.39 mL/min/kg
  half-life: 2.86 h
  Vd: 0.224 L/kg
[9]; Mouse, 2 mg/kg
  AUC(0-t): 7.3 µM·h
  Cmax: 5.93 µM
  clearance: 2.32 mL/min/kg
  half-life: 12.2 h
  Vd: 0.963 L/kg
[9]; Rat, 1.5 mg/kg
  AUC(0-t): 2.77 µM·h
  Cmax: 4.69 µM
  clearance: 4.99 mL/min/kg
  half-life: 8.07 h
  Vd: 0.594 L/kg
[10]
  clearance in human predicted by allometric scaling: low clearance
[11]; Conjugate 57 1 mg/kg
  TGI % Day 8: 50.1%
  TGI % Day 11: 61.4%
  TGI % Day 14: 60.4%
  TGI % Day 19: 63%
  TGI % Day 22: 58.4%
[11]; Conjugate 57 2 mg/kg
  TGI % Day 8: 63.8%
  TGI % Day 11: 82.8%
  TGI % Day 14: 87.9%
  TGI % Day 19: 95.5%
  TGI % Day 22: 97.8%
[12]; 24 h
  Number of cells with positive CC3 stain, Core: 50.3
  Number of cells with positive CC3 stain, Middle: 27.0
  Number of cells with positive CC3 stain, Periphery: 9.7
  Number of cells with positive PH3 stain, Core: 74.7
  Number of cells with positive PH3 stain, Middle: 122.3
  Number of cells with positive PH3 stain, Periphery: 158.3
[12]; 72 h
  Number of cells with positive CC3 stain, Core: 106.7
  Number of cells with positive CC3 stain, Middle: 72.0
  Number of cells with positive CC3 stain, Periphery: 41.0
  Number of cells with positive PH3 stain, Core: 113.0
  Number of cells with positive PH3 stain, Middle: 144.3
  Number of cells with positive PH3 stain, Periphery: 215.7
[13]; 2.0 mg/kg once a week for two weeks
  average body weight loss after the second dosing event: 8.0%
[13]; both treatment groups, 2.0 mg/kg or […] once a week for two weeks
  mice showing complete regression: 10 out of 10
[14]
  proliferation of MCF-7 cells: reduces the proliferation of MCF-7 cells
[15]
  SSTR affinity of Conjugate 57 relative to Conjugate 120: 100,00 fold
[15]; Conjugate 57 Ki (nM), SSTR2
  Ki: 0.018 nM and 0.0177 nM
[15]; Ki (nm), SSTR affinity, Example 8
  Ki: 0.017 nM
[15]; SSTR2 Ki (nM), membranes from SSTR2 expressing CHO-K1 cells
  Ki: 0.018 nM
